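Method: 48-hour compound exposure of cells in 96-well plates, five concentrations, linear interpolation of endpoints. TGI: concentration producing complete growth inhibition.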
Tests used:
Experiment in all cases: NCI tumour cell line growth inhibition, 48 h
[1] = tested on: MDA-MB-435
[2] = tested on: A498 renal
[3] = tested on: OVCAR-3 ovarian
[4] = tested on: U251 CNS
[5] = tested on: NCI-H522 lung
[6] = tested on: CCRF-CEM leukemia
[7] = tested on: MDA-N
[8] = tested on: SK-OV-3 ovarian
[9] = tested on: A549 NSCLC
[10] = tested on: SF-295 CNS

SMILES	TGI [1] [µM]	TGI [2] [µM]	TGI [3] [µM]	TGI [4] [µM]	TGI [5] [µM]	TGI [6] [µM]	TGI [7] [µM]	TGI [8] [µM]	TGI [9] [µM]	TGI [10] [µM]
N#C/C(N)=C(\C#N)N=CNc1ccccc1N	> 100	> 100	> 100	> 100	> 100	> 100	> 100	> 100	> 100	> 100
C(=N/Nc1ccccn1)/c1cccnc1	> 100	> 100	> 100	> 100	> 100	> 100	> 100	> 100	> 100	> 100
CO[C@H]1C[C@H](O[C@H]2CC[C@]3(C=O)[C@H]4CC[C@]5(C)[C@@H](C6=CC(=O)OC6)CC[C@]5(O)[C@@H]4CC[C@]3(O)C2)O[C@H](C)[C@H]1O[C@@H]1O[C@H](CO[C@@H]2O[C@H](CO)[C@@H](O)[C@H](O)[C@H]2O)[C@@H](O)[C@H](O)[C@H]1O	0.281	0.533	0.0809	0.202	0.0638	> 100	0.286	0.21	0.0254	0.161
O=C(NO)c1ccc(OCc2ccccc2)cc1	> 100	43.4	> 100	> 100	51.5	> 100	> 100	> 100	> 100	> 100
Cc1ccc2cccc(OC(=O)c3cc4c(cc3Cl)Sc3nccn3S4(=O)=O)c2n1	26.1	45	11.6	16.6	38	17	> 96	84.2	28.5	29.7
CCCCN1C(=O)C[C@H]2[C@@H]3CCc4cc(OCCN5CCCC5)ccc4[C@H]3CC[C@]2(C)C1=O	19.1	29.4	23.7	19.4	22.7	15	15.1	27.4	22.5	9.63
CC(C)(C)OC(=O)N1C(=O)OC[C@@H]2C=C[C@@H]21	> 100	> 100	> 100	> 100	> 100	> 100	> 100	> 100	> 100	> 100
Clc1cccc(Cl)c1C1SCc2nc3ncccc3n21 (stereo not given)	> 100	> 100	> 100	> 100	> 100	> 100	> 100	> 100	> 100	> 100
CN(CCNC(=O)c1cc(-c2ccccc2)nc2ccccc12)CCNC(=O)c1cc(-c2ccccc2)nc2ccccc12	13.1	37.6	> 100	30.9	> 47.5	> 100	32.2	> 100	> 100	90.5
COc1cc(C2c3cc4c(cc3OC(O)C2C)OCO4)cc(OC)c1O (stereo not given)	5.22	80.6	27.4	62.8	13.3	> 100	5.06	55.7	> 100	33.9
CCC(CCCCC1CC[C@H]2CC(=O)C[C@@H]12)OC (stereo not given in full)	> 100	> 100	> 100	> 100	> 100	> 100	> 100	> 100	> 100	> 100
C/C(=C\[C@H]1C[C@@H]([C@@H]2CC[C@]34C[C@]23C=C[C@@H]2[C@@]3(C)CC=C5C[C@@H](c6ccccc6)OC[C@]5(C)[C@@H]3C[C@@H](O)[C@]24C)C(=O)O1)CO	> 100	5.8	> 100	> 100	89.3	> 100	13.2	> 61.8	> 100	15.7
O=C1C(c2c(O)[nH]c3ccc(S(=O)(=O)N(CCO)CCO)cc23)=Nc2ccccc21	> 100	> 100	> 100	> 100	> 100	> 100	> 100	> 100	> 100	> 100
CCCCC/C(=N\c1nc[nH]c1C(N)=O)OCC	> 100	> 100	> 100	> 100	> 100	> 100	> 100	> 100	> 100	> 100
COc1cc(CNC(=O)CCCCCCCCCCSSCCCCCCCCCCC(=O)NCc2ccc(O)c(OC)c2)ccc1O	> 10	> 10	> 10	> 10	> 10	> 10	> 10	> 10	> 10	> 10
COc1cc(OC)nc(NC(=O)NS(=O)(=O)c2cccc3ncn(C)c(=O)c23)n1	> 100	> 100	> 100	> 100	> 100	> 100	> 100	> 100	> 100	> 100
Nc1nc(Cl)cc(NCC2(CO)CCC(OCc3ccccc3)C2)n1 (stereo not given)	39.9	44.4	> 100	> 100	37.9	> 100	74.6	62.4	> 100	> 100
CC(C)(Cc1ccccc1)Cc1cc(O)ccc1O	49.2	47.6	25.3	32.2	17.1	36.7	56.6	71	> 100	73.5
[O-][n+]1onc2c1-c1nonc1CC2	> 100	83.6	43.8	> 100	95.1	> 100	> 100	> 100	> 100	> 100
CC1=C/C(=C(/c2ccc(O)c(C)c2)c2ccccc2C(=O)O)C=CC1=O	33.3	32.8	33.2	32.1	42.7	45.1	33.2	35.1	35.3	44.2
